What was measured:
Format in all cases: biochemical
[1] = target: T1, FGFR1 (Homo sapiens, UniProt P11362, C488A/C584S); test: AlphaScreen kinase assay, FGFR1; conditions: read-out: IC50, activity toward kinase FGFR
T1 construct: P1351.pET N6 BI-PTP FGFR A458-E765-X C488A, C584S; made in house; host or cells: E. coli (PTP1B co-expressed)

[2] = target: T2, Stk6 (Homo sapiens, UniProt O14965); test: Z'-Lyte FRET kinase assay (Invitrogen), Stk6; conditions: read-out: IC50, activity toward kinase Stk6
T2 construct: purchased Invitrogen (Carlsbad, Calif.), screening service
T2 sequence (O14965 1-403): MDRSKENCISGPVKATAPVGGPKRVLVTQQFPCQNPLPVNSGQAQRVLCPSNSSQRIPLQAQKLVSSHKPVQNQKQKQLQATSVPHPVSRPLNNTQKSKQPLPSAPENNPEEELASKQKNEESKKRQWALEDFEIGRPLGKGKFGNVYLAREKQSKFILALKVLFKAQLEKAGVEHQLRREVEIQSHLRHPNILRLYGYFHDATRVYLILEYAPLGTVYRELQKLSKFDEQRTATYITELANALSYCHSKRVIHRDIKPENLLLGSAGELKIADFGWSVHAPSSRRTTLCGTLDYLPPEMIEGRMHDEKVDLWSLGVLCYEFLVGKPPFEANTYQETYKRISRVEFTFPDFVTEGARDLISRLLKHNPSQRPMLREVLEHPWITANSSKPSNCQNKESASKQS

[3] = target: Akt3 (Homo sapiens, UniProt Q9Y243); test: AlphaScreen kinase assay, Akt3; conditions: read-out: IC50, activity toward kinase Akt3
Chain of Akt3 (Q9Y243 whole entry): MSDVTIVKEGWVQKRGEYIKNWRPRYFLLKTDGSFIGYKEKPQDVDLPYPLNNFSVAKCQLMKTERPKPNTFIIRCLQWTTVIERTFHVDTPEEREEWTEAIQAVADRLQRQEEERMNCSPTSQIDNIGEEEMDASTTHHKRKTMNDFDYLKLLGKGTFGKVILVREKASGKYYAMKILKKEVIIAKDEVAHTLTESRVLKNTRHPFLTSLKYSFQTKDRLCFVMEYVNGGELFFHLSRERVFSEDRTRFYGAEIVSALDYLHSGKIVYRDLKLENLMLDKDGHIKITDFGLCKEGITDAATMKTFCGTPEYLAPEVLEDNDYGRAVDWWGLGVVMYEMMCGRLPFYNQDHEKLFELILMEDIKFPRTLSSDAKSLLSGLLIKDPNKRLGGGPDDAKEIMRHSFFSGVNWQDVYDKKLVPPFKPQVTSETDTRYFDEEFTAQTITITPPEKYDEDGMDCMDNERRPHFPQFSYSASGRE
How it was run: (§1)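 Inhibition reads as diminished acceptor emission, since unphosphorylated peptide fails to bridge antibody acceptor beads and streptavidin donor beads. Titration: eight points, 1:3 steps, stocks at 20 mM in DMSO.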

[4] = target: T3, B-Raf V600E (Homo sapiens, UniProt P15056, V600E); test: AlphaScreen kinase assay, B-Raf V600E; conditions: read-out: IC50, activity toward kinase B-Raf V600E
T3 construct: P4254. pFastBacBD-CDC37 BRAF D437-K722-X, V600E; His6 with pFastBac HT leader (TEV site) (N); made in house; host or cells: Sf9 (baculovirus; chaperone CDC37 co-expressed)
T3 sequence (P15056 with tags, fused parts or gaps V600E): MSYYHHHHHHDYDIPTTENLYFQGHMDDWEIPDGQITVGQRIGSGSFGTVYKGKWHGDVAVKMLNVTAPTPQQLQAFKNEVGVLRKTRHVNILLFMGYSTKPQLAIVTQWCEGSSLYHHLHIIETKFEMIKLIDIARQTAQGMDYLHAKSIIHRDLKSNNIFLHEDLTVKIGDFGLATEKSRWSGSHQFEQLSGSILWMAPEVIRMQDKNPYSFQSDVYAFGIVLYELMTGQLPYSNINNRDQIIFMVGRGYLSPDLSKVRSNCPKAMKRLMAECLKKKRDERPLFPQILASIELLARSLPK

[5] = target: T4, Ret (Homo sapiens, UniProt P07949); test: AlphaScreen kinase assay, Ret; conditions: read-out: IC50, activity toward kinase Ret
T4 construct: P1378.pET-SF BI-PTP RET H661-R1012 HIS; made in house
T4 sequence (P07949 with tags, fused parts or gaps): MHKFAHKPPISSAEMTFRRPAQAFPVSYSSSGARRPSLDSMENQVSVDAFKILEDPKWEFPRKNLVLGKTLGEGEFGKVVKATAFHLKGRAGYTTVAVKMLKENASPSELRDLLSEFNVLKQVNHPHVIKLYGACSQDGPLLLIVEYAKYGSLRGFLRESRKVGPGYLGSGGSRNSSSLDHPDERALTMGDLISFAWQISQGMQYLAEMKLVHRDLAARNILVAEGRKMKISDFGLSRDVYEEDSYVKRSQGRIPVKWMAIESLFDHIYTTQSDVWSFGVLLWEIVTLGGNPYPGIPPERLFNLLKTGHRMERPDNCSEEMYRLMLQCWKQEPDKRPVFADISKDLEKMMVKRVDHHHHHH

[6] = target: T5, MAP2K1 (Homo sapiens, UniProt Q02750); test: Z'-Lyte FRET kinase assay (Invitrogen), MAP2K1; conditions: read-out: IC50, activity toward kinase MAP2K1
T5 construct: purchased Invitrogen (assay run by Invitrogen)
T5 sequence (Q02750 whole entry): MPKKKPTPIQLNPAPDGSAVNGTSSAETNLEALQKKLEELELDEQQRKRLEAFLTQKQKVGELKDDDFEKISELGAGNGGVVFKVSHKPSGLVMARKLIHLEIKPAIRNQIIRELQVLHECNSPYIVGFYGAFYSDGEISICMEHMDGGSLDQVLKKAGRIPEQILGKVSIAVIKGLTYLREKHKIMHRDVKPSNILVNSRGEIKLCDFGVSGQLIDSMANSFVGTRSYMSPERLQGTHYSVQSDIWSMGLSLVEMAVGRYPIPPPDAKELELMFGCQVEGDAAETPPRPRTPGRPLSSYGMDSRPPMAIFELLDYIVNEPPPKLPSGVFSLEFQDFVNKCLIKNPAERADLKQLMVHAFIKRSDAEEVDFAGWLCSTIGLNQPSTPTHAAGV

[7] = target: Plk1 (Homo sapiens, UniProt P53350); test: AlphaScreen kinase assay, Plk1; conditions: read-out: IC50, activity toward kinase Plk1
Chain of Plk1 (P53350 whole entry): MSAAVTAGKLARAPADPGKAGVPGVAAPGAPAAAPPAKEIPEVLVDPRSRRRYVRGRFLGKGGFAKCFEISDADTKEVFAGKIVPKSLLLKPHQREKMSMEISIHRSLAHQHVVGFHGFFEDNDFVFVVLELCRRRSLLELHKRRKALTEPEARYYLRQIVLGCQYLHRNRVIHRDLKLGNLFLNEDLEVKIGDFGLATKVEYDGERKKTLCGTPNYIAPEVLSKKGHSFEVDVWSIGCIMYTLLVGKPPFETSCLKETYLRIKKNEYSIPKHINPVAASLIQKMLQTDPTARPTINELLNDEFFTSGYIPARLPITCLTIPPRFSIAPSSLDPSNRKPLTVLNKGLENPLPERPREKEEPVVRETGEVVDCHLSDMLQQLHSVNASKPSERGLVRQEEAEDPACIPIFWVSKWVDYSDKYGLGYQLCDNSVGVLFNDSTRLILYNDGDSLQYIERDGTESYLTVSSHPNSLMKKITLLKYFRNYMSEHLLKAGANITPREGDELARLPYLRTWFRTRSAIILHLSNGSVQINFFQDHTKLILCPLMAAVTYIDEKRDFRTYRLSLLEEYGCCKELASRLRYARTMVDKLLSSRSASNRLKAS
Text: AlphaScreen assay was used to screen additional kinases. The assay is similarly dependent on the phosphorylation of a peptide substrate. In this assay, an antibody that recognizes phosphorylated substrate is bound to an acceptor bead. The peptide substrate is attached to biotin, which binds to a donor head that contains streptavidin. Thus phosphorylated substrate is bound by antibody and streptavidin, bringing the donor and acceptor heads into close proximity when kinase is not inhibited. The donor produces singlet oxygen which results in emission from the acceptor when they are in close proximity. Conversely, when kinase is inhibited, the donor and acceptor beads are not associated and the emission from the acceptor is reduced.
AlphaScreen assays were done using compounds dissolved in DMSO to a concentration of 20 mM. The compounds were diluted accordingly to the desired final concentrations in each sample well, using 1:3 serial dilution for a total of 8 concentration points.

[8] = target: T6, Yes (Homo sapiens, UniProt P07947); test: Z'-Lyte FRET kinase assay (Invitrogen), Yes; conditions: read-out: IC50, activity toward kinase Yes
T6 construct: purchased Invitrogen (Carlsbad, Calif.), screening service
T6 sequence (P07947 whole entry): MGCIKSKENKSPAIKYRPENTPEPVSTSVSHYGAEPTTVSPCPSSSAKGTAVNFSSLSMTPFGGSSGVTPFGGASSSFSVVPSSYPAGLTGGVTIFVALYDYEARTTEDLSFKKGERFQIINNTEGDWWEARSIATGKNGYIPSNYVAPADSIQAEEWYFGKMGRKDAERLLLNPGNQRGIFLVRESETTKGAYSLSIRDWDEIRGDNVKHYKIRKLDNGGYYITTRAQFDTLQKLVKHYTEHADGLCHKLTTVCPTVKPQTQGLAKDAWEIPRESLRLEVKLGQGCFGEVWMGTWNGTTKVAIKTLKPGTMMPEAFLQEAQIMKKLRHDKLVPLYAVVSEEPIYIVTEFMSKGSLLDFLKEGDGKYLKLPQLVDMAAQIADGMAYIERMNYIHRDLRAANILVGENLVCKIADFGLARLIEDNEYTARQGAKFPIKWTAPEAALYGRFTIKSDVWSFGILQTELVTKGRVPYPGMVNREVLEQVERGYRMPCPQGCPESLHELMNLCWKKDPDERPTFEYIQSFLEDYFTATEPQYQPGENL
How it was run: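 Z′-Lyte FRET assay: kinase phosphorylates 2 μM peptide substrate at 10 μM ATP in 50 mM HEPES pH 7.5, 50 mM MgCl2, 5 mM EGTA, 0.05% BRIJ-35, 1% DMSO, 1 h at room temperature. Protease development 1 h; coumarin/fluorescein emission ratio gives phosphorylation extent over compound concentration curves.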

[9] = target: T7, EphB2 (Homo sapiens, UniProt P29323); test: Z'-Lyte FRET kinase assay (Invitrogen), EphB2; conditions: read-out: IC50, activity toward kinase EphB2
T7 construct: purchased Invitrogen (assay run by Invitrogen)
T7 sequence (P29323 19-1055): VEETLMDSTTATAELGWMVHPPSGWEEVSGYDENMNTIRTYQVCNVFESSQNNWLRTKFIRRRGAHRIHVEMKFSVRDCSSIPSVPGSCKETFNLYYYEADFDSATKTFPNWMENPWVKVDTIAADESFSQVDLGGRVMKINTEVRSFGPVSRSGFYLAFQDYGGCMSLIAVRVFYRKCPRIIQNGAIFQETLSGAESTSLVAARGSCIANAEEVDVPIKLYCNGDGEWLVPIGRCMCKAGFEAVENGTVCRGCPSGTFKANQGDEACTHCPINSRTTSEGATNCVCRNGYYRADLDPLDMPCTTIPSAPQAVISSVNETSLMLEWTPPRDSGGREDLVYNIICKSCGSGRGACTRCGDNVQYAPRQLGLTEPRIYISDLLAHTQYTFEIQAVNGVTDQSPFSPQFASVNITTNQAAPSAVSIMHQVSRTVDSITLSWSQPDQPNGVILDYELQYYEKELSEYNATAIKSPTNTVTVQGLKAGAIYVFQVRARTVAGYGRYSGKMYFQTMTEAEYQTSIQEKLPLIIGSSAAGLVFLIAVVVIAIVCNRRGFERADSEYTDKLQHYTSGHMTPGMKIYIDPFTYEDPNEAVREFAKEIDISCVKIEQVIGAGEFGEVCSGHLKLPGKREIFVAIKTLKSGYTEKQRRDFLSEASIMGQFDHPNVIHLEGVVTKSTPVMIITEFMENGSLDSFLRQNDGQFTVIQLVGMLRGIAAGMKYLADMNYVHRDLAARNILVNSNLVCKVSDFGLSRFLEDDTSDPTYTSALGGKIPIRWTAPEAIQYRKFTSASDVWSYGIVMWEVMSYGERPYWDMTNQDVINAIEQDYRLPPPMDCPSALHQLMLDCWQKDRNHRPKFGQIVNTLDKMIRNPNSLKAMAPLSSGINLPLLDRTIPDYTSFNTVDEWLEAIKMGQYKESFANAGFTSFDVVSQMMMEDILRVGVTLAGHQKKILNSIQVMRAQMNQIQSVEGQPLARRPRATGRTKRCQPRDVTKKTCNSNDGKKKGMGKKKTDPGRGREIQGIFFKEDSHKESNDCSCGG
Text: The effect of potential modulators of kinase activity can be measured in a variety of different assays known in the art. For example, direct radiometric, indirect FRET or AlphaScreen assays may be used to assess the level of phosphorylation of a substrate in the presence of test compounds in order to determine the inhibitory affect of the compound on the kinase. Invitrogen (Carlsbad, Calif.) uses a FRET based assay for Btk, EGFR, EphB2, Flt3, lrak4, Kdr, MAP2K1, MAPKAPK2, PDGFRB, PKC theta, Stk6 and Yes. For these assays, compounds of the invention were screened by Invitrogen using Z′-Lyte™ kinase assay.
Briefly, the Invitrogen kinase assay involves use of a specific peptide substrate optimized for each kinase, containing a fluorophore at each end that make up the FRET pair. The peptide sensitivity to proteolytic cleavage depends on phosphorylation of the peptide. Non-phosphorylated peptide is cleaved by a protease while peptide phosphorylated by the kinase is not cleaved. Cleavage of the peptide disrupts the FRET between the donor (coumarin) and acceptor (fluorescein) fluorophores, resulting in an increase in the ratio of donor emission to acceptor emission. The emission ratio of coumarin to fluorescein is used to assess the reaction progress. The extent of phosphorylation is determined from the emission ratio, which is low when the kinase is active (phosphorylated peptide is not cleaved, FRET pair connected) or higher for inhibited kinase (non-phosphorylated peptide is cleaved, FRET pair separated). Thus, the assay involves a kinase reaction in the presence of varying concentrations of a given compound, a development reaction with site specific protease, and detection of the fluorescent emission ratio of coumarin and fluorscein. […] Reaction conditions for each kinase are determined to provide optimal reaction times, incubation temperature, kinase and ATP concentrations. Test samples are made up in 1× kinase buffer (50 mM HEPES pH 7.5, 50 mM MgCl2, 5 mM EGTA, 0.05% BRIJ-35) and compound at desired concentration prepared in DMSO such that the final DMSO is 1%. […] Typically, assay plates are prepared to 10 μl final volume per sample, adding 2.5 μl of compound at 4× the desired concentration in 4% DMSO (serial dilution of compound provides concentration curve), 5 μl of the desired kinase mixed with Z′-LYTE™ peptide substrate (2× in 2× kinase buffer, final peptide at 2 μM), and 2.5 μl of 4×ATP solution. All kinase except for MAP2K1 were at 10 μM ATP in the kinase reaction, while MAP2K1 was at 100 μM. Samples are mixed and the kinase reaction is incubated 1 hour at room temperature, after which 5 μl of development solution is added and mixed. After incubation for another 1 hour at room temperature, 5 μl of stop reagent is added to each sample and mixed. The fluorescence signals are measured to determine the emission ratio.

[10] = target: T8, Kdr (Homo sapiens, UniProt P35968); test: Z'-Lyte FRET kinase assay (Invitrogen), Kdr; conditions: read-out: IC50, activity toward kinase Kdr
T8 construct: purchased Invitrogen (assay run by Invitrogen)
T8 sequence (P35968 20-1356): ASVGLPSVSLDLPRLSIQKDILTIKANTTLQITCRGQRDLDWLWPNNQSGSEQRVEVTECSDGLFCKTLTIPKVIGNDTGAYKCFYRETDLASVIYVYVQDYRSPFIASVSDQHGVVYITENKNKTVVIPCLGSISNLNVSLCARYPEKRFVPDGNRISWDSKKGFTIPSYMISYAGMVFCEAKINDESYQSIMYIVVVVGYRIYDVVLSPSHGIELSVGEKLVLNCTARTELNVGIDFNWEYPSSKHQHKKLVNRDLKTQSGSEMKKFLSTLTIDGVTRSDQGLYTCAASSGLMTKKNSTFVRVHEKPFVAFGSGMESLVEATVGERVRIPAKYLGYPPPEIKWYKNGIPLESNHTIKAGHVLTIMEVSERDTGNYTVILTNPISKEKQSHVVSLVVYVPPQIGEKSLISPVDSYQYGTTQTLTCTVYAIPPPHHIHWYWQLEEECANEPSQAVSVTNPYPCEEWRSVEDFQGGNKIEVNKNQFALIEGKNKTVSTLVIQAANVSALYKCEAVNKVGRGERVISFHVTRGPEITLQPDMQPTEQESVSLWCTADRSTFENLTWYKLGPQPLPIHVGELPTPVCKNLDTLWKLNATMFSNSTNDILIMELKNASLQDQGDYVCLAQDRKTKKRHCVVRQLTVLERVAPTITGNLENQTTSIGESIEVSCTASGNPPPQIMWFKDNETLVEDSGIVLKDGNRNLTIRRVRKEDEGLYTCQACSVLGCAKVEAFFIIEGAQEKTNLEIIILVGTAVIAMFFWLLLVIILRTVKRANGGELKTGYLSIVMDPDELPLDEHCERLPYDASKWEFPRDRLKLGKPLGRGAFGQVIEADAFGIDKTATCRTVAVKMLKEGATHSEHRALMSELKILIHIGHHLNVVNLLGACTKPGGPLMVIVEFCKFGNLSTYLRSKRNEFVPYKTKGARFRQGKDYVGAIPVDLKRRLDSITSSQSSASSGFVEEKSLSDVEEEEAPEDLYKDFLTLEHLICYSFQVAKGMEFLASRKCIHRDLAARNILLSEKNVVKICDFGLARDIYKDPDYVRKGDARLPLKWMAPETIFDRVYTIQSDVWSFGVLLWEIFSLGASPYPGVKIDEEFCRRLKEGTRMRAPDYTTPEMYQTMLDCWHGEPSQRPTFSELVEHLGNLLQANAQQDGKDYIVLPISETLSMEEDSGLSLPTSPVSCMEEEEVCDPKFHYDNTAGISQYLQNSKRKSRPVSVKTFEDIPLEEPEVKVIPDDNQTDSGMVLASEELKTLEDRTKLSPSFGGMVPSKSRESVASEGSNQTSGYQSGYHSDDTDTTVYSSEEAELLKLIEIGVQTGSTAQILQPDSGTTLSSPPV

[11] = target: T9, Btk (Homo sapiens, UniProt Q06187); test: Z'-Lyte FRET kinase assay (Invitrogen), Btk; conditions: read-out: IC50, activity toward kinase Btk
T9 construct: purchased Invitrogen (assay run by Invitrogen)
T9 sequence (Q06187 whole entry): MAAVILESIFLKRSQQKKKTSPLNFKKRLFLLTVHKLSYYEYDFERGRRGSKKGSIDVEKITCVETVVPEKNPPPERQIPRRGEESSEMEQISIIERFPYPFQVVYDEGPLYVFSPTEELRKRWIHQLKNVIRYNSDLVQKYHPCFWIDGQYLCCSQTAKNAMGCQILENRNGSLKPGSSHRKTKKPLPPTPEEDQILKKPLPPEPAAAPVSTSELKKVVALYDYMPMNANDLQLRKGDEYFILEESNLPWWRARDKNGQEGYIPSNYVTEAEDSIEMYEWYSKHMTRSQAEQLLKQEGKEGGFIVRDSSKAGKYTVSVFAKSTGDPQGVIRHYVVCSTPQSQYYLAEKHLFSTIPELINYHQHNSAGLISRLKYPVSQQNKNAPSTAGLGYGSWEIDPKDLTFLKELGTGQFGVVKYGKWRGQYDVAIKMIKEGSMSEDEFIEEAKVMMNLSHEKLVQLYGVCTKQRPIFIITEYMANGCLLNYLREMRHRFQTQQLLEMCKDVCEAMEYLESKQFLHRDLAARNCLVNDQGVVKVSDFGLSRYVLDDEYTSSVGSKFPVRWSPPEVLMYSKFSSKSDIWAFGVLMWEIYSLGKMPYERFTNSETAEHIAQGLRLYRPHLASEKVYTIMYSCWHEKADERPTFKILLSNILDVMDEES

[12] = target: Gsk3β (Homo sapiens, UniProt P49841); test: AlphaScreen kinase assay, Gsk3β; conditions: read-out: IC50, activity toward kinase Gsk3β
How it was run: as §1

[13] = target: T10, Pyk2 (Homo sapiens, UniProt Q14289); test: AlphaScreen kinase assay, Pyk2; conditions: read-out: IC50, activity toward kinase Pyk2
T10 construct: purchased Upstate Biotechnology

[14] = target: T11, Kit (Homo sapiens, UniProt P10721); test: AlphaScreen kinase assay, Kit; conditions: read-out: IC50, activity toward kinase Kit
T11 construct: P1332.N6 BI PTP KIT M552-K948-X COD; His6 (N); made in house; host or cells: E. coli (PTP1B co-expressed)
T11 sequence (P10721 with tags, fused parts or gaps): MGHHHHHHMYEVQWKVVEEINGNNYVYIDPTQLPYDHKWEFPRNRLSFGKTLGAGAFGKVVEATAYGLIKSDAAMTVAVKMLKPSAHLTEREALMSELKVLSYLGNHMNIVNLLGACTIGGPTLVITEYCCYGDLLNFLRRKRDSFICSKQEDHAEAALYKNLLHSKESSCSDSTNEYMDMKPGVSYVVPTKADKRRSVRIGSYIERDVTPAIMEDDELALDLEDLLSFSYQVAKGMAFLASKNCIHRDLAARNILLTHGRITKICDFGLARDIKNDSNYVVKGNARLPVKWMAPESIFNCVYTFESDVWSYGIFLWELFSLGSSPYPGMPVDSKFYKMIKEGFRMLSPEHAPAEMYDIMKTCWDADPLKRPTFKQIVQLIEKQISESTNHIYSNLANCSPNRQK

[15] = target: T12, Fak (Homo sapiens, UniProt Q05397); test: AlphaScreen kinase assay, Fak; conditions: read-out: IC50, activity toward kinase Fak
T12 construct: P1358.pFastBacHtb FAK S411-Q686-X; His6 with pFastBacHTb leader (TEV site) (N); made in house; host or cells: Sf9 (baculovirus)
T12 sequence (Q05397 411-686): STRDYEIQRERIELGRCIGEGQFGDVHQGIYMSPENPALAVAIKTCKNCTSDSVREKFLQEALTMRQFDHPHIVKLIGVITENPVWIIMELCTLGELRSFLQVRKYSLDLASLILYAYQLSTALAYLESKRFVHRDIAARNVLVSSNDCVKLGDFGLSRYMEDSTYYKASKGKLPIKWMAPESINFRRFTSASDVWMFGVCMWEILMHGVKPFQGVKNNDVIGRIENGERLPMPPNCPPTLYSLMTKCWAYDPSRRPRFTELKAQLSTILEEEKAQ

[16] = target: T13, Flt1 (Homo sapiens, UniProt P17948); test: AlphaScreen kinase assay, Flt1; conditions: read-out: IC50, activity toward kinase Flt1
T13 construct: P1826.pETN6 BI-PTP FLT1 M799-D1165-X WT; His6 (N); made in house; host or cells: E. coli (PTP1B co-expressed)
T13 sequence (P17948 with tags, fused parts or gaps): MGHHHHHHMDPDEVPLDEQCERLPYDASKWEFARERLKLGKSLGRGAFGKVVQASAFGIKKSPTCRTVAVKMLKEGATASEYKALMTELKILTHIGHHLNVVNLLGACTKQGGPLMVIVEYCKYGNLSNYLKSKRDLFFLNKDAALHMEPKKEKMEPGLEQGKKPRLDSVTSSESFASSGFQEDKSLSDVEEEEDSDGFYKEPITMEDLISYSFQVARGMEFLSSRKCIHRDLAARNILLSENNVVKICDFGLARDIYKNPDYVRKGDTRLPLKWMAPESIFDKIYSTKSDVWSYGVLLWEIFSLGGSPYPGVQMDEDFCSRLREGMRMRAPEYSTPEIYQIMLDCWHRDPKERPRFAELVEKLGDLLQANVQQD

IC50 [1] [µM] | IC50 [2] [µM] | IC50 [3] [µM] | IC50 [4] [µM] | IC50 [5] [µM] | IC50 [6] [µM] | IC50 [7] [µM] | IC50 [8] [µM] | IC50 [9] [µM] | IC50 [10] [µM] | IC50 [11] [µM] | IC50 [12] [µM] | IC50 [13] [µM] | IC50 [14] [µM] | IC50 [15] [µM] | IC50 [16] [µM] | Structure (SMILES)
≤ 10 | ≤ 10 | ≤ 10 | ≤ 10 | ≤ 10 | ≤ 10 | ≤ 10 |  |  |  |  |  |  |  |  |  | COc1cccc(C(=O)c2c[nH]c3nccc(-c4cccc(N)c4)c23)c1 [Compound P-0099]
 | ≤ 10 |  | ≤ 10 | ≤ 10 |  | ≤ 10 |  |  |  | ≤ 10 | ≤ 10 |  |  |  |  | Nc1cccc(-c2ccnc3[nH]cc(C(=O)c4ccc(Cl)cc4)c23)c1 [Compound P-0148]

Continued, molecule first:

Structure (SMILES) | IC50 [1] [µM] | IC50 [2] [µM] | IC50 [3] [µM] | IC50 [4] [µM] | IC50 [5] [µM] | IC50 [6] [µM] | IC50 [7] [µM] | IC50 [8] [µM] | IC50 [9] [µM] | IC50 [10] [µM] | IC50 [11] [µM] | IC50 [12] [µM] | IC50 [13] [µM] | IC50 [14] [µM] | IC50 [15] [µM] | IC50 [16] [µM]
Nc1cccc(-c2ccnc3[nH]cc(C(=O)c4cccc(Cl)c4Cl)c23)c1 [Compound P-0075] |  |  |  | ≤ 10 | ≤ 10 |  | ≤ 10 | ≤ 10 | ≤ 10 | ≤ 10 | ≤ 10 |  |  |  |  | 
Cc1ccccc1C(=O)c1c[nH]c2nccc(-c3cccnc3)c12 [Compound P-0083] |  |  |  |  | ≤ 10 |  | ≤ 10 | ≤ 10 | ≤ 10 |  | ≤ 10 |  |  |  |  | 
Cc1occc1Sc1c[nH]c2ncccc12 [Compound P-0018] |  | ≤ 10 |  |  |  | ≤ 10 | ≤ 10 |  |  | ≤ 10 |  |  | ≤ 10 | ≤ 10 | ≤ 10 | ≤ 10

Reference: US8415469B2, “Compounds and methods for kinase modulation, and indications therefor” (Plexxikon Inc., priority 2005, dated 2013)
